Laboratory results taken from patent US20240254156A1, “NOVEL ISOFLAVONE COMPOUND” (NABOCUL COSMETICS CO., LTD., priority 2021, published 2024).

Tests used:
[1] = system: filaggrin 2 (FLG2) gene; test: filaggrin 2 gene mRNA expression in HaCaT cells (QPCR); format: cell-based, human
Description: (§1) The Ceratonia siliqua C obtained in Example 2 was used to examine the effect of the Ceratonia siliqua C on the expression of aquaporin 3 (AQP3) gene and filaggrin 2 (FLG2) gene in a HaCaT cell, a human epidermis-derived keratinocyte cell line.
(§2) First, the HaCaT cells were cultured in a DMEM medium (containing 10% FBS, 100 U/mL penicillin and […] streptomycin) in the presence of 5% CO2 at 37° C. and saturated humidity. Next, the HaCaT cells adjusted to a cell concentration of 5×10^5 cells/mL were seeded in each well of a 6-well cell culture plate and cultured in a CO2 incubator (5% CO2, 37° C.) for 24 hours. Thereafter, the Ceratonia siliqua C isolated in Example 2 was added to each well to provide a final concentration different from each other. Specifically, the final concentrations of Ceratonia siliqua C in the HaCaT cell culture medium were 1 μM, 5 μM, 10 μM, 50 μM and 100 μM, respectively. A well without the Ceratonia siliqua C added was used as a control (0 μM). After addition, they were subjected to culture for 24 hours.
(§3) After completion of the culture, the HaCaT cells were collected from each well, and total RNA was extracted with an RNA extraction reagent (RNAzol®, a product available from Molecular Research Center, Inc.). […]

[2] = system: aquaporin 3 (AQP3) gene; test: aquaporin 3 gene mRNA expression in HaCaT cells (QPCR); format: cell-based, human
Description: as §1, §2, §3

[3] = system: IL-6 production in RAW264.7 cells; test: LPS-induced IL-6 production in RAW264.7 cells (ELISA); format: cell-based, mouse; details: 1, 5, 10, 50 and 100 μM, added 3 h before LPS 1 μg/mL, supernatant after 24 h, FIG. 11
Description: The Ceratonia siliqua C obtained in Example 2 was used to examine the effect of the Ceratonia siliqua C on the production of IL-6 that is an inflammatory cytokine.
In this test, an RAW264.7 cell, a mouse macrophage-derived cell line was used. RAW264.7 cells were cultured in a DMEM medium (containing 10% FBS, 100 U/mL penicillin and […] streptomycin) in the presence of 5% CO2 at 37° C. and saturated humidity.
Each well of a 96-well plate was seeded with 8×10^3 RAW264.7 cells, and the cells were cultured in a CO2 incubator for 24 hours. This was divided into a blank control group, a positive control group and a test group. A 100 μL portion of a DMEM medium was added to each well of the blank control group; a 100 μL portion of a solution of dexamethasone (DXM) dissolved in the DMEM medium was added to each well of the positive control group (a final concentration of dexamethasone: 20 μM); and a 100 μL portion of each of solutions obtained by appropriately diluting the Ceratonia siliqua C with the DMEM medium was added to each well of the test group to provide a different concentration from each other (final concentration: 1 μM, 5 μM, 10 μM, 50 μM and 100 μM). 3 hours later, LPS (1 μg/mL) was added to each well to induce inflammation. 24 hours later, the supernatant was collected and the IL-6 content in the supernatant was measured with an IL-6 quantitative ELISA kit. […]

[4] = 10 μM (highest expression promoting effect), 24 h, relative to control

COc1ccc(-c2coc3c(OC)c(O)c(O[C@@H]4O[C@H](CO)[C@@H](O)[C@H](O)[C@H]4O)cc3c2=O)cc1 [Ceratonia siliqua C]
increase of mRNA expression level of filaggrin 2 [1, 4]: 1.35 times | mRNA expression level of filaggrin 2 compared to the control ([1]; 1-100 μM, 24 h culture, FIG. 13): greatly increased the mRNA expression level | increase of mRNA expression level of aquaporin 3 [2, 4]: 2.5 times | mRNA expression level of aquaporin 3 compared to the control ([2]; 1-100 μM, 24 h culture, FIG. 12): greatly increased the mRNA expression level | production of IL-6 by LPS induction [3]: inhibit the production of IL-6 in a concentration-dependent manner
